Where two headings read alike, the source gives them in different places.
Experiment: Pharmacokinetics study of KPT-335 in cats (i.v. injection, p.o. capsules and tablets; UPLC-MS/MS, non-compartmental analysis)
Assay type: in vivo
Conditions: both sexes, plasma, cats; for AUC(0-t): read-out: AUClast; for AUC(0-inf): read-out: AUCINF_obs; for Cmax: read-out: Cmax
Protocol: In this study, a parallel trial design was employed, 42 adult domestic cats (21 males and 21 females), aged 1 to 2 years and weighing 2.5 ± 0.25 kg. Cats were grouped by random number, with half male and female in each group, and all cats were determined to be systemically healthy during an initial screening visit 1 week prior to the experiment. They were acclimatized to the laboratory environment for 7 days before the study commenced. During this period, they were kept in solitary cages with free access to water. Cats in the fasting group were deprived of food for 12 h prior to and 2 h following drug administration, while those in the feeding group were fed twice a day. Food and water sources were consistent throughout the trail. During and at the end of the experiment, we systematically assessed the adverse reactions by recording parameters such as body weight, behavior, and coat gloss in all test cats both before and after the trial. These observations were conducted to evaluate whether any adverse reactions occurred. All procedures were reviewed and approved by the Institutional Animal Care and Use Committee of China Agricultural University (11305-23-E-002).
The UPLC-MS/MS system utilized a UPLC 1290 (Agilent) paired with a Phenomenex Kinetex C18 column (50 mm × 2.1 mm, 2.6 μm) for separation at a flow rate of 0.3 mL/min. The chromatographic mobile phase comprised water (A) and acetonitrile (B), both containing 0.1% formic acid. The gradient elution program was as follows: from 0.5 to 2.5 min, 10 to 95% B; from 2.5 to 4.5 min, 95% B; from 4.5 to 4.6 min, 95 to 10% B; and from 4.6 to 6.0 min, 10% B. The injection volume was 2 μL.
For mass spectrometry, an Agilent 6,475-LC-TQ equipped with an electrospray ion source was used. Multiple Reaction Monitoring (MRM) was selected to quantify KPT-335 in the positive ion mode. The ion transitions monitored were m/z 443.1 → 334.0 and 443.1 → 110.1 for KPT-335, and m/z 444.1 → 334.0 for the internal standard (IS). The cone voltage and collision energy were optimized for KPT-335 and the IS individually, set at 160 V and 25 eV, respectively. The optimized parameters for the instrument included an ion source temperature of 350°C, solvent removal temperature of 320°C, capillary voltage of 3.0 kV, and a solvent gas flow rate of 300 L/h.
The method was developed based on prior research conducted in the laboratory ([16]) and validated in accordance with international guidelines ([17]). The calibration concentration range for KPT-335 spanned from 0.5 to 100 ng/mL, with a lower limit of quantification (LLOQ) set at 0.5 ng/mL. The squared correlation coefficient (R^2) values exceeded 0.999, indicating high linearity.
For sample preparation, 100 μL of plasma was mixed with 10 μL of internal standard (IS) and 900 μL of acetonitrile, followed by vortexing for 2 min. The mixture was then centrifuged at 13,400 × g at 4°C for 10 min. The supernatant was filtered through a 0.22 μm organic membrane, and the resulting sample was analyzed using UPLC-MS/MS.
Cats were divided into seven groups, with six cats in each group. In the intravenous (i.v.) group (Group 1), cats received an injection of KPT-335 at a dosage of 1 mg/kg body weight (BW), administered via a bolus through a venous infusion needle. For the oral (p.o.) administration, cats were given capsules in a fasting state at doses of 0.2 mg/kg BW (Group 2), 1 mg/kg BW (Group 3), and 2 mg/kg BW (Group 4). Additionally, tablets were administered at 1 mg/kg BW (fasting, Group 5), 1 mg/kg BW (Group 6), and 2 mg/kg BW (Group 7) in a feeding state, followed by 3 mL of water delivered with a syringe.
For the p.o. administration, blood samples of 1.5 mL were collected via the brachial cephalic vein prior to administration and at 0.167, 0.333, 0.5, 0.75, 1, 1.5, 2, 4, 6, 8, 12, 24, 32, and 48 h post-administration. […]

[1] = cat, iv, 1 mg/kg, i.v. 1 mg/kg BW, mean, read-out: Plasma concentration Mean
[2] = cat, iv, 1 mg/kg, i.v. 1 mg/kg BW, mean
[3] = cat, po, 0.2 mg/kg, capsule p.o. 0.2 mg/kg BW, mean, read-out: Plasma concentration Mean
[4] = cat, po, 0.2 mg/kg, capsule p.o. 0.2 mg/kg BW, mean
[5] = cat, po, 1 mg/kg, capsule p.o. 1 mg/kg BW, mean, read-out: Plasma concentration Mean
[6] = cat, po, 1 mg/kg, capsule p.o. 1 mg/kg BW, mean
[7] = cat, po, 1 mg/kg, capsule p.o. 1 mg/kg BW, individual cats 1-6, read-out: Plasma concentration
[8] = cat, po, 1 mg/kg, tablet p.o. 1 mg/kg BW after fasting, individual cats 1-6, read-out: Plasma concentration
[9] = cat, po, 1 mg/kg, tablet p.o. 1 mg/kg BW after fasting, mean, read-out: Plasma concentration Mean
[10] = cat, po, 1 mg/kg, tablet p.o. 1 mg/kg BW after fasting, mean
[11] = cat, po, 1 mg/kg, tablet p.o. 1 mg/kg BW after feeding, mean, read-out: Plasma concentration Mean
[12] = cat, po, 1 mg/kg, tablet p.o. 1 mg/kg BW after feeding, mean
[13] = cat, po, 2 mg/kg, capsule p.o. 2 mg/kg BW, mean, read-out: Plasma concentration Mean
[14] = cat, po, 2 mg/kg, capsule p.o. 2 mg/kg BW, mean
[15] = cat, po, 2 mg/kg, tablet p.o. 2 mg/kg BW after feeding, mean, read-out: Plasma concentration Mean
[16] = cat, po, 2 mg/kg, tablet p.o. 2 mg/kg BW after feeding, mean
[17] = cat, po, 2 mg/kg, tablet p.o. 2 mg/kg BW after feeding, individual cats 1-6, read-out: Plasma concentration
[18] = iv, 1 mg/kg, i.v., Injection, 1 mg/kg BW
[19] = po, 0.2 mg/kg, p.o., Capsule, Fasting, 0.2 mg/kg BW

O=C(/C=C\n1cnc(-c2cc(C(F)(F)F)cc(C(F)(F)F)c2)n1)NNc1ccccn1 [KPT-335]
concentration at 0.083 h (cat, iv, 1 mg/kg, i.v. 1 mg/kg BW, 0.083 h, mean): 844 ng/mL
concentration at 0.167 h [1]: 812 ng/mL
concentration at 0.25 h (cat, iv, 1 mg/kg, i.v. 1 mg/kg BW, 0.25 h, mean): 767 ng/mL
concentration at 0.33 h [2]: 733 ng/mL
concentration at 0.5 h [2]: 667 ng/mL
concentration at 0.75 h [2]: 526 ng/mL
concentration at 1 h [1]: 531 ng/mL
concentration at 2 h [1]: 441 ng/mL
concentration at 4 h [1]: 255 ng/mL
concentration at 8 h [2]: 95.9 ng/mL
concentration at 12 h [2]: 39.5 ng/mL
concentration at 24 h [2]: 10.2 ng/mL
concentration at 32 h [2]: 4.86 ng/mL
half-life (cat, other: i.v. and p.o., i.v. and p.o. routes, all groups, read-out: half-life (T1/2), range over all groups): 3.5 to 7 h
concentration at 0.167 h [3]: 1.34 ng/mL
concentration at 0.33 h [4]: 6.56 ng/mL
concentration at 0.5 h [4]: 13.6 ng/mL
concentration at 0.75 h [4]: 20.8 ng/mL
concentration at 1 h [3]: 21.5 ng/mL
concentration at 1.5 h [3]: 22.9 ng/mL
concentration at 2 h [3]: 22.4 ng/mL
concentration at 4 h [3]: 17.9 ng/mL
concentration at 6 h [4]: 15.5 ng/mL
concentration at 8 h [4]: 13.9 ng/mL
concentration at 12 h [4]: 9.36 ng/mL
concentration at 24 h [4]: 3.49 ng/mL
concentration at 32 h [4]: 3.58 ng/mL
concentration at 0.167 h [5]: 4.97 ng/mL
concentration at 0.33 h [6]: 39.5 ng/mL
concentration at 0.5 h [6]: 100 ng/mL
concentration at 0.75 h [6]: 174 ng/mL
concentration at 1 h [7]: 161 ng/mL
concentration at 1 h [5]: 233 ng/mL
concentration at 1.5 h [5]: 250 ng/mL
concentration at 2 h [5]: 227 ng/mL
concentration at 4 h [5]: 153 ng/mL
concentration at 6 h [6]: 79.2 ng/mL
concentration at 8 h [6]: 53.1 ng/mL
concentration at 12 h [6]: 24.6 ng/mL
concentration at 24 h [6]: 5.57 ng/mL
concentration at 32 h [6]: 1.82 ng/mL
concentration at 48 h [7]: 0.69 ng/mL
concentration at 48 h [5]: 0.84 ng/mL
AUC(0-t) (cat, po, 1 mg/kg, p.o., Tablet, Feeding, 1 mg/kg BW): 2270 ± 1250 ng·h/mL
concentration at 0.167 h [8]: 5.51 ng/mL
concentration at 0.167 h [9]: 5.66 ng/mL
concentration at 0.33 h [10]: 77.5 ng/mL
concentration at 0.5 h [10]: 204 ng/mL
concentration at 0.75 h [10]: 223 ng/mL
concentration at 1 h [9]: 227 ng/mL
concentration at 1.5 h [9]: 235 ng/mL
concentration at 2 h [8]: 208 ng/mL
concentration at 2 h [9]: 216 ng/mL
concentration at 4 h [8]: 209 ng/mL
concentration at 4 h [9]: 187 ng/mL
concentration at 6 h [10]: 154 ng/mL
concentration at 8 h [10]: 121 ng/mL
concentration at 12 h [10]: 74.1 ng/mL
concentration at 24 h [10]: 15.5 ng/mL
concentration at 32 h [10]: 5.11 ng/mL
concentration at 48 h [9]: 2.26 ng/mL
concentration at 0.167 h [11]: 13.8 ng/mL
concentration at 0.33 h [12]: 79.1 ng/mL
concentration at 0.5 h [12]: 148 ng/mL
concentration at 0.75 h [12]: 257 ng/mL
concentration at 1 h [11]: 334 ng/mL
concentration at 1.5 h [11]: 321 ng/mL
concentration at 2 h [11]: 304 ng/mL
concentration at 4 h [11]: 211 ng/mL
concentration at 6 h [12]: 146 ng/mL
concentration at 8 h [12]: 107 ng/mL
concentration at 12 h [12]: 52.1 ng/mL
concentration at 24 h [12]: 7.74 ng/mL
concentration at 32 h [12]: 3.37 ng/mL
concentration at 48 h [11]: 1.25 ng/mL
concentration at 0.167 h [13]: 0.68 ng/mL
concentration at 0.33 h [14]: 8.76 ng/mL
concentration at 0.5 h [14]: 52.5 ng/mL
concentration at 0.75 h [14]: 152 ng/mL
concentration at 1 h [13]: 206 ng/mL
concentration at 1.5 h [13]: 272 ng/mL
concentration at 2 h [13]: 269 ng/mL
concentration at 4 h [13]: 187 ng/mL
concentration at 6 h [14]: 111 ng/mL
concentration at 8 h [14]: 74.1 ng/mL
concentration at 12 h [14]: 40.1 ng/mL
concentration at 24 h [14]: 9.56 ng/mL
concentration at 32 h [14]: 4.07 ng/mL
concentration at 48 h [13]: 1.28 ng/mL
AUC(0-t) (cat, po, 2 mg/kg, p.o., Tablet, Feeding, 2 mg/kg BW): 3000 ng·h/mL
concentration at 0.167 h [15]: 16.9 ng/mL
concentration at 0.33 h [16]: 95.9 ng/mL
concentration at 0.5 h [16]: 222 ng/mL
concentration at 0.75 h [16]: 389 ng/mL
concentration at 1 h [17]: 288 ng/mL
concentration at 1 h [15]: 464 ng/mL
concentration at 1.5 h [17]: 366 ng/mL
concentration at 1.5 h [15]: 555 ng/mL
concentration at 2 h [17]: 303 ng/mL
concentration at 2 h [15]: 516 ng/mL
concentration at 4 h [15]: 333 ng/mL
concentration at 6 h [16]: 187 ng/mL
concentration at 8 h [16]: 126 ng/mL
concentration at 12 h [16]: 45 ng/mL
concentration at 24 h [16]: 6.55 ng/mL
concentration at 32 h [16]: 2.28 ng/mL
Tmax (cat, po, all p.o. groups, read-out: Tmax after oral (p.o.) administration): 1 to 2.5 h
bioavailability (cat, po, p.o. capsules 0.2–2 mg/kg BW, read-out: absolute bioavailability, capsule group range): 28.9 to 44.7%
bioavailability (cat, po, p.o. tablets 1–2 mg/kg BW, read-out: absolute bioavailability, tablet group range): 47.3 to 75.9%
MRT last (iv, 1 mg/kg, Injection, 1 mg/kg BW): 4.73 ± 1.1 h
AUC(0-inf) [18]: 3200 ± 851 ng·h/mL
AUC(0-t) [18]: 3170 ± 842 ng·h/mL
Cmax [18]: 851 ± 285 ng/mL
k el (iv, 1 mg/kg, i.v., Injection, 1 mg/kg BW, read-out: Lambda_z (converted)): 5e-05 s⁻¹
MRT last (po, 0.2 mg/kg, Capsule, Fasting, 0.2 mg/kg BW): 8.66 ± 2.71 h
AUC(0-inf) [19]: 314 ± 220 ng·h/mL
AUC(0-t) [19]: 278 ± 158 ng·h/mL
Cmax [19]: 27.6 ± 9.02 ng/mL

From publication PMC12078333, “Pharmacokinetic evaluation and bioavailability of KPT-335 (Verdinexor) in cats” (Frontiers in Veterinary Science, 2025)
